# Measurements as given in patent US12492181B2, “Gem-disubstituted piperidine melanocortin subtype-2 receptor (MC2R) antagonists and uses thereof” (Crinetics Pharmaceuticals, Inc., priority 2019, dated 2025).
# Target: T1, hMC2 receptor (crude hMC2R membranes from CRE-bla-CHO-K1 cells stably expressing hMC2 receptor and hMRAP accessory protein) (Homo sapiens, UniProt Q01718)
# T1 construct: crude membrane fractions
# Assay: hMC2 membrane binding assay ([125I]ACTH (1-39) Tyr23, SPA)
# Settings: displacement of 0.2 nM [125I]ACTH (1-39) Tyr23 from hMC2R membranes, 1.5 hours at room temperature; read-out: MC2R binding potency
# Procedure, shortened: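 Crude membranes from CRE-bla-CHO-K1 cells stably co-expressing hMC2R and hMRAP, premixed with WGA PVT SPA beads in pH 7.4 HEPES buffer (5 mM MgCl2, 1 mM CaCl2, 0.20% BSA, protease inhibitors). Compounds compete with [125I]ACTH(1-39) Tyr23, read by scintillation. Ki from non-linear regression.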
# T1 sequence (Q01718 whole entry): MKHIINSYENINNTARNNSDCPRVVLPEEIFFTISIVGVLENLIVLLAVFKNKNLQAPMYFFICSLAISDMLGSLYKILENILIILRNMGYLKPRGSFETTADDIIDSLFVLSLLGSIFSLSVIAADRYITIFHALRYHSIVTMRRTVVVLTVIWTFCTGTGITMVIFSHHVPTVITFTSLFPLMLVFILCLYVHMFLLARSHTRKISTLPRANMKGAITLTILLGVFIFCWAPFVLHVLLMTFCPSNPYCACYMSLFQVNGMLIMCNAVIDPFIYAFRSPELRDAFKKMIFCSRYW
# T1 sequence (Q8TCY5 whole entry partner): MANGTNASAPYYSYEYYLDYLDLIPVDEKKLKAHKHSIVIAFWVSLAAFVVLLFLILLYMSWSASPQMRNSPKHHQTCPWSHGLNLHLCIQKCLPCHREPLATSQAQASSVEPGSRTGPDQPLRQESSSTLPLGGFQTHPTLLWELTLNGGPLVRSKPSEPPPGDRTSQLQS
structure (smiles),measurement,value
"CNCCNC(=O)C1(c2ccc(-c3ccccc3OC)nc2)CCN(c2ccc(C(F)(F)F)cc2Cl)CC1 [Compound 1-257, 1-[2-chloro-4-(trifluoromethyl)phenyl]-4-[6-(2-methoxyphenyl)pyridin-3-yl]-N-[2-(methylamino)ethyl]piperidine-4-carboxamide]",Ki,< 0.01 µM
"CCOc1ncccc1-c1ccc(C2(C(=O)N[C@H]3CCN(C)C3)CCN(c3ccc(C#N)cc3C#N)CC2)cn1 [Compound 1-40, 1-(2,4-dicyanophenyl)-4-{2′-ethoxy-[2,3′-bipyridin]-5-yl}-N-[(3S)-1-methylpyrrolidin-3-yl]piperidine-4-carboxamide]",Ki,< 0.01 µM
"CNC[C@H](C)NC(=O)C1(c2ccc(-c3cccnc3OC)nc2)CCN(c2ccc(C(F)(F)F)cc2F)CC1 [Compound 1-306, 1-[2-fluoro-4-(trifluoromethyl)phenyl]-4-{2′-methoxy-[2,3′-bipyridin]-5-yl}-N-[(2S)-1-(methylamino)propan-2-yl]piperidine-4-carboxamide]",Ki,< 0.01 µM
"CN1CC[C@H](NC(=O)C2(c3cnc(-c4cccn4C)c(F)c3)CCN(c3ccc(C(F)(F)F)cc3F)CC2)C1 [Compound 1-192, 1-[2-fluoro-4-(trifluoromethyl)phenyl]-4-[5-fluoro-6-(1-methyl-1H-pyrrol-2-yl)pyridin-3-yl]-N-[(3S)-1-methylpyrrolidin-3-yl]piperidine-4-carboxamide]",Ki,< 0.01 µM
"CCOc1ncccc1-c1ccc(C2(C(=O)NC[C@@H](CO)NC)CCN(c3ccc(C(F)(F)F)cc3C#N)CC2)cn1 [Compound 1-47, 1-[2-cyano-4-(trifluoromethyl)phenyl]-4-{2′-ethoxy-[2,3′-bipyridin]-5-yl}-N-[(2S)-3-hydroxy-2-(methylamino)propyl]piperidine-4-carboxamide]",Ki,< 0.01 µM
"COc1nc2ccccc2cc1-c1ccc(C2(C(=O)N[C@@H]3CCN(C)C3)CCN(c3ccc(C(F)(F)F)cc3C#N)CC2)cn1 [Compound 1-189, 1-[2-cyano-4-(trifluoromethyl)phenyl]-4-[6-(2-methoxyquinolin-3-yl)pyridin-3-yl]-N-[(3R)-1-methylpyrrolidin-3-yl]piperidine-4-carboxamide]",Ki,< 0.01 µM
"CCOc1ncccc1-c1ccc(C2(NC(=O)[C@H]3CCCN3C)CCN(c3ccc(C(F)(F)F)cc3C#N)CC2)cc1 [Compound 2-17, (2R)—N-{1-[2-cyano-4-(trifluoromethyl)phenyl]-4-[4-(2-ethoxypyridin-3-yl)phenyl]piperidin-4-yl}-1-methylpyrrolidine-2-carboxamide]",Ki,0.01 to 0.1 µM
"CCOc1ccccc1-c1ccc(C2(C(=O)NC3CN(C)C3)CCN(c3ccc(Cl)cc3C#N)CC2)nn1 [Compound 1-135, 1-(4-chloro-2-cyanophenyl)-4-[6-(2-ethoxyphenyl)pyridazin-3-yl]-N-(1-methylazetidin-3-yl)piperidine-4-carboxamide]",Ki,< 0.01 µM
"CCOc1ncccc1-c1ccc(C2(C(=O)N[C@H]3CCN(C)C3)CCN(c3ccc(C(F)(F)F)cc3C#N)CC2)cn1 [Compound 1-11, 1-[2-cyano-4-(trifluoromethyl)phenyl]-4-{2′-ethoxy-[2,3′-bipyridin]-5-yl}-N-[(3S)-1-methylpyrrolidin-3-yl]piperidine-4-carboxamide]",Ki,< 0.01 µM
"COc1ccccc1-c1ccc(C2(C(=O)N[C@@H]3CN(C)C[C@H]3F)CCN(c3ccc(C(F)(F)F)cc3C#N)CC2)cn1 [Compound 1-243, 1-[2-cyano-4-(trifluoromethyl)phenyl]-N-[(3R,4R)-4-fluoro-1-methylpyrrolidin-3-yl]-4-[6-(2-methoxyphenyl)pyridin-3-yl]piperidine-4-carboxamide]",Ki,< 0.01 µM
"CCOc1c(F)cccc1-c1ccc(C2(C(=O)N[C@@H]3CCN(C)C3)CCN(c3ccc(C(F)(F)F)cc3C#N)CC2)cn1 [Compound 1-72, 1-[2-cyano-4-(trifluoromethyl)phenyl]-4-[6-(2-ethoxy-3-fluorophenyl)pyridin-3-yl]-N-[(3R)-1-methylpyrrolidin-3-yl]piperidine-4-carboxamide]",Ki,< 0.01 µM
"CCOc1ccccc1-c1ncc(C2(C(=O)N[C@H]3CCN(C)C3)CCN(c3ccc(C(F)(F)F)nc3C#N)CC2)cc1F [Compound 1-125, 1-[2-cyano-6-(trifluoromethyl)pyridin-3-yl]-4-[6-(2-ethoxyphenyl)-5-fluoropyridin-3-yl]-N-[(3S)-1-methylpyrrolidin-3-yl]piperidine-4-carboxamide]",Ki,< 0.01 µM
"CCOc1ncccc1-c1ccc(C2(C(=O)NCCN(C)C)CCN(c3ccc(C(F)(F)F)cc3C#N)CC2)nn1 [Compound 1-331, 1-[2-cyano-4-(trifluoromethyl)phenyl]-N-[2-(dimethylamino)ethyl]-4-[6-(2-ethoxypyridin-3-yl)pyridazin-3-yl]piperidine-4-carboxamide]",Ki,< 0.01 µM
"CN1CC[C@H](NC(=O)C2(c3ccc(-c4cccn4C4CC4)nc3)CCN(c3ccc(C(F)(F)F)cc3C#N)CC2)C1 [Compound 1-158, 1-[2-cyano-4-(trifluoromethyl)phenyl]-4-[6-(1-cyclopropyl-1H-pyrrol-2-yl)pyridin-3-yl]-N-[(3S)-1-methylpyrrolidin-3-yl]piperidine-4-carboxamide]",Ki,< 0.01 µM
"CCN(C)CCNC(=O)C1(c2ccc(-c3cccn3C)nc2)CCN(c2ccc(C(F)(F)F)cc2C#N)CC1 [Compound 1-265, 1-[2-cyano-4-(trifluoromethyl)phenyl]-N-{2-[ethyl(methyl)amino]ethyl}-4-[6-(1-methyl-1H-pyrrol-2-yl)pyridin-3-yl]piperidine-4-carboxamide]",Ki,< 0.01 µM
"CCOc1ncccc1-c1ccc(C2(NC(=O)CCN(C)C)CCN(c3ccc(C(F)(F)F)cc3C#N)CC2)cn1 [Compound 2-10, N-{1-[2-cyano-4-(trifluoromethyl)phenyl]-4-{2′-ethoxy-[2,3′-bipyridin]-5-yl}piperidin-4-yl}-3-(dimethylamino)propanamide]",Ki,< 0.01 µM
"CCOc1ncccc1-c1ccc(C2(C(=O)N[C@H]3CCN(C)C3)CCN(c3ccc(C(F)(F)F)cc3Cl)CC2)nn1 [Compound 1-194, 1-[2-chloro-4-(trifluoromethyl)phenyl]-4-[6-(2-ethoxypyridin-3-yl)pyridazin-3-yl]-N-[(3S)-1-methylpyrrolidin-3-yl]piperidine-4-carboxamide]",Ki,< 0.01 µM
"CCOc1ccccc1-c1ccc(C2(C(=O)NCCN(C)C)CCN(c3ccc(C(F)(F)F)cc3Cl)CC2)cn1 [Compound 1-228, 1-[2-chloro-4-(trifluoromethyl)phenyl]-N-[2-(dimethylamino)ethyl]-4-[6-(2-ethoxyphenyl)pyridin-3-yl]piperidine-4-carboxamide]",Ki,< 0.01 µM
"CO[C@@H]1CN(C)C[C@@H]1NC(=O)C1(c2ccc(-c3cccn3C)nc2)CCN(c2ccc(C(F)(F)F)cc2C#N)CC1 (racemic) [Compound 1-267, rac-1-[2-cyano-4-(trifluoromethyl)phenyl]-N-[(3S,4R)-4-methoxy-1-methylpyrrolidin-3-yl]-4-[6-(1-methyl-1H-pyrrol-2-yl)pyridin-3-yl]piperidine-4-carboxamide]",Ki,< 0.01 µM
"CCOc1ccccc1-c1ccc(C2(C(=O)N[C@H]3CCN(C)C3)CCN(c3ccc(C(F)(F)F)cc3C#N)CC2)cn1 [Compound 1-30, 1-[2-cyano-4-(trifluoromethyl)phenyl]-4-[6-(2-ethoxyphenyl)pyridin-3-yl]-N-[(3S)-1-methylpyrrolidin-3-yl]piperidine-4-carboxamide]",Ki,< 0.01 µM
"CCOc1ncccc1-c1ccc(C2(NC(=O)CN(C)C)CCN(c3ccc(C(F)(F)F)cc3C#N)CC2)cn1 [Compound 2-26, N-{1-[2-cyano-4-(trifluoromethyl)phenyl]-4-{2′-ethoxy-[2,3′-bipyridin]-5-yl}piperidin-4-yl}-2-(dimethylamino)acetamide]",Ki,< 0.01 µM
"CN1CC[C@@H](NC(=O)C2(c3ccc(-c4cccnc4OC(F)F)nc3)CCN(c3ccc(C(F)(F)F)cc3C#N)CC2)C1 [Compound 1-85, 1-[2-cyano-4-(trifluoromethyl)phenyl]-4-[2′-(difluoromethoxy)-[2,3′-bipyridin]-5-yl]-N-[(3R)-1-methylpyrrolidin-3-yl]piperidine-4-carboxamide]",Ki,< 0.01 µM
"Cc1ccc(F)cc1-c1ccc(C2(C(=O)N[C@@H]3CCN(C)C3)CCN(c3ccc(C(F)(F)F)cc3C#N)CC2)cn1 [Compound 1-99, 1-[2-cyano-4-(trifluoromethyl)phenyl]-4-[6-(5-fluoro-2-methylphenyl)pyridin-3-yl]-N-[(3R)-1-methylpyrrolidin-3-yl]piperidine-4-carboxamide]",Ki,< 0.01 µM
"COc1ccccc1-c1ncc(C2(NC(=O)CCN(C)C)CCN(c3ccc(C(F)(F)F)cc3C#N)CC2)cc1F [Compound 2-62, N-{1-[2-cyano-4-(trifluoromethyl)phenyl]-4-[5-fluoro-6-(2-methoxyphenyl)pyridin-3-yl]piperidin-4-yl}-3-(dimethylamino)propanamide]",Ki,< 0.01 µM
"Cn1cccc1-c1ccc(C2(C(=O)N[C@@H]3C[C@@H]3N)CCN(c3ccc(C(F)(F)F)cc3C#N)CC2)cn1 (racemic) [Compound 1-258, rac-N-[(1R,2S)-2-aminocyclopropyl]-1-[2-cyano-4-(trifluoromethyl)phenyl]-4-[6-(1-methyl-1H-pyrrol-2-yl)pyridin-3-yl]piperidine-4-carboxamide]",Ki,< 0.01 µM
"CCOc1ncccc1-c1ccc(C2(C(=O)N[C@H]3CCN(C)C3)CCN(c3ccc(C(C)(F)F)cc3C#N)CC2)cn1 [Compound 1-59, 1-[2-cyano-4-(1,1-difluoroethyl)phenyl]-4-{2′-ethoxy-[2,3′-bipyridin]-5-yl}-N-[(3S)-1-methylpyrrolidin-3-yl]piperidine-4-carboxamide]",Ki,< 0.01 µM
"Cc1ncncc1-c1ccc(C2(C(=O)N[C@@H]3CCN(C)C3)CCN(c3ccc(C(F)(F)F)cc3C#N)CC2)cn1 [Compound 1-105, 1-[2-cyano-4-(trifluoromethyl)phenyl]-4-[6-(4-methylpyrimidin-5-yl)pyridin-3-yl]-N-[(3R)-1-methylpyrrolidin-3-yl]piperidine-4-carboxamide]",Ki,0.01 to 0.1 µM
